The values that follow come from EP0509752A2, “Ophthalmic compositions comprising combinations of a carbonic anhydrase inhibitor and a beta-adrenergic antagonist” (MERCK & CO. INC., priority 1991, dated 1992).

The test system of this experiment is Patients with either ocular hypertension or primary open angle glaucoma. The experiment is described as follows: Study of Compound I in combination with timolol: 12 hour diurnal IOP curve (Goldmann applanation tonometer). It is filed as in vivo. The note with it: 2% Compound I, 1 drop to each eye every 12 hours for seven days, ten minutes after timolol 0.5% bid, worse eye analysis, preliminary IOP data. The text has this:
Study of (S,S)-(-)-5,6-dihydro-4-ethylamino-6-methyl-4H-thieno[2,3b]thiopyran-2-sulfonamide-7,7-dioxide (I) in combination with Timolol
Patients aged 40 or over, with either ocular hypertension or primary open angle glaucoma with an intraocular pressure (IOP) in one or both eyes of 22 mmHg or more at one time point each day while receiving timolol 0.5% twice a day (bid) alone were admitted to the study. Patients had been on timolol 0.5% bid, either alone or in combination for at least three weeks prior to study entry and had been on timolol 0.5% bid as their sole glaucoma therapy for at least two weeks prior to study admission.
Secondary glaucoma was an exclusion as was a history of glaucoma surgery or laser trabeculoplasty/gonioplasty. Patients for whom timolol was contraindicated by the datasheet were excluded and also excluded were those on a concurrent β-blocker, carbonic anhydrase inhibitor, or clonidine. […]
• 1. […] Patients were admitted for a 12 hour diurnal curve (i.e., IOP recorded at 08.00, 09.00, 10.00, 12.00, 14.00, 16.00, 18.00, 20.00 hours approximately, the 08.00 recording was immediately prior to instillation of the drops). All pressures were measured by the same observer using the same Goldmann applanation tonometer. • 3. […] On Day 2, the IOP of each patient was measured at 8 am and 9 am, and a 12 hour diurnal curve was recorded on Day 8. preliminary IOP data follow : […]

Molecules are shown by their SMILES.

Regarding `CCN[C@H]1C[C@H](C)S(=O)(=O)c2sc(S(N)(=O)=O)cc21` [Compound I, (S,S)-(-)-5,6-dihydro-4-ethylamino-6-methyl-4H-thieno[2,3b]thiopyran-2-sulfonamide-7,7-dioxide], the “effect over the effect of timolol alone (percent change in IOP on Day 8 from prestudy)” value was 13%-21%.
